Data as given in the supplement of paper PMC10307832.

Tests used:
Assay in all cases: relative viability (nuclei count vs DMSO), 5 days (fraction); higher = more cells survive
RU-SKI 43 = compound: CC[C@@H](C)CNCC(=O)N1CCC2=C([C@@H]1COC3=CC=CC(=C3)C)C=CS2 [RU-SKI 43]
Outline: (§1)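 Vehicle-anchored 1536-well plates of lung cancer cell lines, held overnight at 37 °C, were pinned with five library-drug doses (not always all listed) spaced by √10. No medium change followed over the next 5 days, after which the cells were fixed, permeabilised and Hoechst-stained together and imaged at 4×. Nuclei were counted with MetaXpress, and viability is treated-well nuclei over vehicle-well nuclei, taken as a median across plates. Plates passed with control CV below 25% and at least one doubling.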

MK-8033 = compound: Cn1cc(-c2cnc3ccc4ccc(CS(=O)(=O)NCc5ccccn5)cc4c(=O)c3c2)cn1 [MK-8033]
Outline: as §1

Irinotecan = compound: CCc1c2c(nc3ccc(OC(=O)N4CCC(N5CCCCC5)CC4)cc13)-c1cc3c(c(=O)n1C2)COC(=O)[C@]3(O)CC [Irinotecan]
Outline: as §1

RU-SKI 43 + Alpelisib = compound: CC[C@@H](C)CNCC(=O)N1CCC2=C([C@@H]1COC3=CC=CC(=C3)C)C=CS2 [RU-SKI 43] + Cc1nc(NC(=O)N2CCC[C@H]2C(N)=O)sc1-c1ccnc(C(C)(C)C(F)(F)F)c1 [Alpelisib] (partner 2 µM)
Outline: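 After 5 days of treatment, lung cancer cells in 1536-well plates were fixed and stained in a single step (final 0.05% Triton X-100, 1% formaldehyde, 1 ug/ml Hoechst) and their nuclei counted on 4× images. Treatment had been applied by pin tool the day after seeding as one drug alone or as a fixed anchor-drug dose with five library-drug doses (not always all listed) in √10 steps. Relative viability is the nuclei count of treated wells divided by that of vehicle wells, and values are medians of duplicate plates.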

| Cell Line | relative viability (RU-SKI 43; 0.1 µM) | relative viability (RU-SKI 43; 0.3162 µM) | relative viability (RU-SKI 43; 1 µM) | relative viability (RU-SKI 43; 3.162 µM) | relative viability (RU-SKI 43; 10 µM) | relative viability (MK-8033; 0.02 µM) | relative viability (MK-8033; 0.06325 µM) | relative viability (MK-8033; 0.2 µM) | relative viability (MK-8033; 0.6325 µM) | relative viability (MK-8033; 2 µM) | relative viability (Irinotecan; 0.6325 µM) | relative viability (Irinotecan; 2 µM) | relative viability (Irinotecan; 6.325 µM) | relative viability (Irinotecan; 20 µM) | relative viability (RU-SKI 43 + Alpelisib; first compound 0.1 µM) | relative viability (RU-SKI 43 + Alpelisib; first compound 0.3162 µM) | relative viability (RU-SKI 43 + Alpelisib; first compound 1 µM) | relative viability (RU-SKI 43 + Alpelisib; first compound 3.162 µM) | relative viability (RU-SKI 43 + Alpelisib; first compound 10 µM) |
| --- | --- | --- | --- | --- | --- | --- | --- | --- | --- | --- | --- | --- | --- | --- | --- | --- | --- | --- | --- |
| NCI-H441 | 1.12 | 1.16 | 1.08 | 1.14 | 0.956 | 1.01 | 0.903 | 1.04 | 1.02 | 1.08 | 0.567 | 0.614 | 0.303 | 0.266 | 0.87 | 0.907 | 0.573 | 0.68 | 0.946 |
| Calu-6 | 0.948 | 1.21 | 1.07 | 1.08 | 0.966 | 1.02 | 0.906 | 0.923 | 1.06 | 1 | 0.724 | 0.59 | 0.247 | 0.133 | 0.994 | 1.14 | 0.994 | 1.03 | 0.989 |
| CAL-12T | 1.04 | 1.04 | 1.14 | 0.907 | 1 | 1.01 | 0.936 | 0.962 | 1.07 | 0.951 | 0.81 | 1.04 | 0.485 | 0.293 | 1.06 | 1.53 | 1.44 | 1.39 | 1.25 |
| HCC-78 | 1.01 | 0.961 | 1.2 | 0.944 | 0.911 | 0.959 | 0.895 | 0.863 | 0.982 | 0.926 | 0.8 | 0.686 | 0.24 | 0.326 | 0.349 | 0.325 | 0.378 | 0.436 | 0.29 |
| NCI-H2170 | 0.977 | 1.06 | 1.01 | 1.04 | 0.986 | 0.991 | 0.925 | 0.918 | 0.948 | 0.971 | 0.959 | 0.946 | 0.462 | 0.223 | 0.78 | 0.855 | 0.86 | 0.826 | 0.808 |
| NCI-H23 | 1.03 | 1.18 | 1.1 | 1.1 | 0.926 | 0.977 | 0.897 | 0.893 | 1.06 | 0.86 | 0.693 | 0.73 | 0.332 | 0.234 | 0.648 | 0.796 | 0.81 | 0.697 | 0.628 |
| COR-L 105 | 1.01 | 0.853 | 0.963 | 1.07 | 0.899 | 1.04 | 0.809 | 0.854 | 0.94 | 0.826 | 0.803 | 0.903 | 0.603 | 0.339 | 0.935 | 0.818 | 0.931 | 0.916 | 0.921 |
| LOU-NH91 | 0.971 | 0.918 | 1.03 | 0.939 | 0.932 | 0.979 | 0.712 | 0.941 | 0.937 | 0.975 | 0.898 | 0.971 | 0.456 | 0.385 | 0.72 | 0.738 | 0.711 | 0.681 | 0.7 |
| NCI-H650 | 0.968 | 0.9 | 1.13 | 0.758 | 1.05 | 0.985 | 0.977 | 1.06 | 0.954 | 0.906 | 0.648 | 0.794 | 0.259 | 0.241 | 1.14 | 0.981 | 1.12 | – | 1.07 |
| NCI-H2023 | 1.06 | 1.47 | 1.11 | 1.1 | 0.905 | 0.941 | 0.88 | 0.838 | 0.846 | 0.715 | 0.881 | 0.829 | 0.217 | 0.0696 | 0.62 | 0.722 | 0.6 | 0.605 | 0.521 |
| NCI-H1563 | 0.965 | 0.928 | 0.966 | 1.06 | 0.852 | 0.975 | 0.918 | 0.927 | 0.988 | 0.98 | 1.02 | 1.01 | 0.974 | 0.601 | 0.862 | 0.925 | 0.903 | 0.853 | 0.862 |
| LCLC-103H | 1.05 | 1.07 | 1.18 | 1.06 | 1.03 | 0.99 | 1 | 0.896 | 0.997 | 1.06 | 0.945 | 0.929 | 0.451 | 0.423 | 0.941 | 1.06 | 1.05 | 1.14 | 0.91 |
| HCC-15 | 1.07 | 1.09 | 1.11 | 1.11 | 0.993 | 1.05 | 0.968 | 0.86 | 1.02 | 0.999 | 0.444 | 0.684 | 0.241 | 0.182 | 0.96 | 1.02 | 0.963 | 0.931 | 0.844 |
| NCI-H838 | 0.97 | 0.965 | 1.05 | 1 | 0.981 | 0.954 | 0.923 | 0.919 | 0.952 | 0.953 | 1.05 | 1.02 | 0.526 | 0.316 | 0.975 | 0.969 | 0.966 | 0.93 | 1.02 |
| NCI-H2009 | 1.02 | 1.07 | 1.07 | 1.06 | 1.01 | 1.05 | 1.01 | 0.953 | 0.945 | 0.961 | 0.716 | 0.733 | 0.272 | 0.153 | 1.18 | 1.3 | 1.2 | 1.15 | 1.13 |
| NCI-H2228 | 0.937 | 1.27 | 1.31 | 1.01 | 0.601 | 1.03 | 0.839 | 0.878 | 1.06 | 0.89 | 0.706 | 0.868 | 0.484 | 0.409 | 0.667 | 0.768 | 1.08 | 0.704 | 0.423 |
| NCI-H460 | 1.04 | 1.06 | 1.03 | 1.01 | 0.967 | 0.992 | 0.945 | 0.96 | 1.06 | 1.03 | 0.74 | 0.556 | 0.142 | 0.0536 | 0.44 | 0.657 | 0.6 | 0.5 | 0.36 |
